Data from patent US11884933B2, “Supported in vitro developed tissue culture and culturing methods” (IMBA—INSTITUT FÜR MOLEKULARE BIOTECHNOLOGIE GMBH, priority 2016, dated 2024).
Entries after “also recorded” stand apart in the source; their conditions may differ.

Legend:
H9 enCORs = test: Cortical plate / basement membrane formation in enCORs with dissolved ECM components or GM6001; type: cell-based, human
Experimental: At day 20, media was changed to an improved differentiation+A (IDM+A): 1:1 of DMEM/F12 and Neurobasal, 0.5% N2 supplement, 2% B27+vitamin A, 0.25% insulin solution, 50 μM 2-mercaptoethanol, 1% Glutamax, 0.5% MEM-NEAA, 1% Penicillin-Streptomycin, 0.4 mM Vitamin C, and 1.49 g HEPES per 500 ml to control pH levels. Alternatively, media can be pH controlled with further bicarbonate buffering with the addition of 1 mg/ml sodium bicarbonate. At day 40, media was changed to IDM+A with 1 ml dissolved Matrigel per 50 ml media by slowly thawing the Matrigel on ice and addition to cold media to dissolve (FIG. 1a, step 6).
For treatment with matrix metalloprotease inhibitor GM6001 (Selleck Chemicals S7157), a final concentration of 3 μM was added beginning on day 30.

[1] = tested on: microfilament patterned organoids; test: CHIR pulse after neuroepithelial budding in microfilament organoids; type: cell-based, human
Description: At day 3, half media was changed with EB media without bFGF and Y-27632. On day 5, EBs were moved with an angled cut P200 tip to 24-well low-attachment plates (Sigma, cat. #CLS3473) with neural induction media (NI) as previously described in WO 2014/090993 A1 (incorporated herein by reference) (FIG. 1a, step 3). Media was changed every other day. On day 11, or when polarized neural ectoderm was visible on the surface, organoids were transferred to droplet of Matrigel as previously described in WO 2014/090993 A1 but kept in NI media (FIG. 1a, transition from step 3 to 4). At day 13 (2 days after Matrigel embedding), media was changed to an improved differentiation media-A (IDMA): 1:1 of DMEM/F12 and Neurobasal (Invitrogen, cat. #21103049), 0.5% N2 supplement (Invitrogen, cat. #17502048), 2% B27-vitamin A (Invitrogen, cat. #12587010), 0.25% insulin solution (Sigma, cat. #I9278-5ML), 50 μM 2-mercaptoethanol, 1% Glutamax, 0.5% MEM-NEAA, and 1% Penicillin-Streptomycin (Sigma, cat. *P0781). Additionally, CHIR 99021 (Tocris, cat. #4423) at 3 μM was added from day 13 to 16. Media was changed every other day and organoids were moved to a spinning bioreactor or orbital shaker as described previously in WO 2014/090993 A1, on day 18 (FIG. 1a, step 5). After moving to the shaker, media was changed every 3-4 days. Shaking speed was calculated based on the throw of the shaker. […]

H1 spheroids = test: Three day CHIR pulse in spheroids, germ layer staining; type: cell-based, human; conditions: 3-day CHIR pulse alone, day 40 spheroids
Experimental: Organoids were fixed in 4% paraformaldehyde for 20 min at room temperature and washed with PBS three times for 10 min each at room temperature before allowing to sink in 30% sucrose at 4° C. […] Statistical analysis of quantifications performed from imaging data was performed using Student's t-test for significance.

laminin
CP formation (H9 enCORs; dissolved laminin 35 μg/ml from day 40, 60-day enCORs): no evidence of CP formation; also recorded: did not recapitulate the extent of CP formation seen with Matrigel

Cc1c[nH]c(-c2cnc(NCCNc3ccc(C#N)cn3)nc2-c2ccc(Cl)cc2Cl)n1 [CHIR, CHIR99021]
neuroepithelial bud morphology ([1]; CHIR 3 μM, day 13 to 16, after Matrigel embedding): larger, more continuous buds of neuroepithelium; also recorded: dramatic lateral expansion of neuroepithelial tissues and the generation of larger lumens with surrounding continuous neuroepithelium | dorsal brain region identity staining (Emx1, Tbr1, Tbr2) ([1]; microfilament patterned organoids treated with CHIR): all large lobes of brain tissue within microfilament patterned organoids treated with CHIR to be dorsal cortex; also recorded: large Emx1+ regions; also recorded: virtually all large regions stained positive for dorsal cortical markers Tbr1 and Tbr2 | germ layer induction and organoid morphology (H1 spheroids): did not influence germ layer induction or overall organoid morphology

CNC(=O)[C@H](Cc1c[nH]c2ccccc12)NC(=O)[C@@H](CC(=O)NO)CC(C)C [GM6001]
CP formation (H9 enCORs; GM6001 3 μM continuous from day 30, 60-day enCORs): no signs of CP formation; also recorded: did not result in CP formation by 60 days

CCO [ethanol]
ethanol concentration in the media (150 mM dose, within a day): approximately 60 mM | course of ethanol concentration in the media (all doses tested): progressive decrease in concentration over time | equivalent blood alcohol content (equivalent of approximately 60 mM): 0.27 % by volume
